Results taken from ChEMBL document CHEMBL5360570, “Discovery of pyrazolo[3,4-b]pyridine derivatives as novel and potent Mps1 inhibitors for the treatment of cancer” (Eur J Med Chem, 2023).
pIC50: −log10 of the molar value.

How the values were obtained:
[1] = molecular target: T1, Dual specificity protein kinase TTK (Homo sapiens, UniProt P33981); experiment: Inhibition of Mps1 (unknown origin) pretreated for 10 mins followed by substrate addition and measured after 60 mins in presence of ATP by ADP-glo kinase assay
T1 sequence (P33981 whole entry): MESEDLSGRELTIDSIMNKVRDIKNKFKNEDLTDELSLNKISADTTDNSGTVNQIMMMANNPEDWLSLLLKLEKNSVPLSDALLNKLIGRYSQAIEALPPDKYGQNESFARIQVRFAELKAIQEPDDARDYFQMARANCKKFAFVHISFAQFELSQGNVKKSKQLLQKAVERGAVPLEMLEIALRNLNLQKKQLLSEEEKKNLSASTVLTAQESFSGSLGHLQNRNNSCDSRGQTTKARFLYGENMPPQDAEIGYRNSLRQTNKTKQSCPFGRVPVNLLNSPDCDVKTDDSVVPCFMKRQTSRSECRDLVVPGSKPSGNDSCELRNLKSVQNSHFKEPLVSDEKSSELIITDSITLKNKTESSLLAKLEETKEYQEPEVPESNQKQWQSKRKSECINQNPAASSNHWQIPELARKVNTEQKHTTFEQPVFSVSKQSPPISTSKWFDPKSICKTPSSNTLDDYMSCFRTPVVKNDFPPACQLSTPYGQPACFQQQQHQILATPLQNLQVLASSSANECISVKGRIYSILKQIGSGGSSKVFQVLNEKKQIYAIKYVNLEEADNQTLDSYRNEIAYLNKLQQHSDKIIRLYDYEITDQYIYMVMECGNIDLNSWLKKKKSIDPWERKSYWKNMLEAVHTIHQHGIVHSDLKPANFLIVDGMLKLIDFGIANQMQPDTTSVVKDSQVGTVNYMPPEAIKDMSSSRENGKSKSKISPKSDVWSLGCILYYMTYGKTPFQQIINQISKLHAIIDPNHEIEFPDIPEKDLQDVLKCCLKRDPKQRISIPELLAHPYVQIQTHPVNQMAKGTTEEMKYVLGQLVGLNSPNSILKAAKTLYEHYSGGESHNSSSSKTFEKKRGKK

MDA-MB-468 = experiment: cells; format: functional, cell-based; conditions: Homo sapiens, MDA-MB-468, 72 h
Description: Antiproliferative activity against human MDA-MB-468 cells assessed inhibition of cell growth incubated for 72 hrs by CCK-8 assay

[2] = molecular target: Epithelial discoidin domain-containing receptor 1 (Homo sapiens) (UniProt Q08345); experiment: Inhibition of DDR1 (unknown origin) assessed as residual activity at 1 uM relative to control
[3] = molecular target: Focal adhesion kinase 1 (Homo sapiens) (UniProt Q05397); experiment: Inhibition of PTK2 (unknown origin) assessed as residual activity at 1 uM relative to control
Chain of Focal adhesion kinase 1 (Homo sapiens) (Q05397 2-1052 limits assumed): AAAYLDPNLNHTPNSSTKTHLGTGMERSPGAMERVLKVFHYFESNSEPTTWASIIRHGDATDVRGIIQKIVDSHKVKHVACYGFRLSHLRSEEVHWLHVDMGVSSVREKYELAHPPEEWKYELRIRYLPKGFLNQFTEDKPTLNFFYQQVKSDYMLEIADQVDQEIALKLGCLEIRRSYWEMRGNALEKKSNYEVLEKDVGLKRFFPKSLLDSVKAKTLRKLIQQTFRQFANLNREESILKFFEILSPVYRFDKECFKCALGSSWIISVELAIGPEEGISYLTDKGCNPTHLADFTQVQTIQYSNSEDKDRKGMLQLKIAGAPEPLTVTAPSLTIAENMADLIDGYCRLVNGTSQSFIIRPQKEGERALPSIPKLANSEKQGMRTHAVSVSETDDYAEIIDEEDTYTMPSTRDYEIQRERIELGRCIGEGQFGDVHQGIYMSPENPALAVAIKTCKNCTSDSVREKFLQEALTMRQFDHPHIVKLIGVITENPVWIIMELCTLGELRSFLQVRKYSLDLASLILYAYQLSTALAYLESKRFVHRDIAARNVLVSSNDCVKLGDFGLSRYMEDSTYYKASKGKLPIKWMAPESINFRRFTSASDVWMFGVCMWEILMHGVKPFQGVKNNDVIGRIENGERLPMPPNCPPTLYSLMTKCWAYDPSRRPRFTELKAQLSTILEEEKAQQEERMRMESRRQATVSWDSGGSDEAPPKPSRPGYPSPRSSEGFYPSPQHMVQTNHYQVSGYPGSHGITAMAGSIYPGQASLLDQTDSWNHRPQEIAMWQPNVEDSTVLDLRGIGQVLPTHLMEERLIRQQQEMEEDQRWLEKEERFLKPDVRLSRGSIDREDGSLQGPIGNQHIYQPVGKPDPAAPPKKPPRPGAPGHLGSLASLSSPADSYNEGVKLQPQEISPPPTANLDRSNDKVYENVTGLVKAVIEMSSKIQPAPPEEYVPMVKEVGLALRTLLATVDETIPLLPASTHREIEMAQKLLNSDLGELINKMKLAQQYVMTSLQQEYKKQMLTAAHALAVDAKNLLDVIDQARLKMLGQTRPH

[4] = molecular target: Tyrosine-protein kinase Fer (Homo sapiens) (UniProt P16591); experiment: Inhibition of FER (unknown origin) assessed as residual activity at 1 uM relative to control
[5] = molecular target: Tyrosine-protein kinase Fes/Fps (Homo sapiens) (UniProt P07332); experiment: Inhibition of FES (unknown origin) assessed as residual activity at 1 uM relative to control
[6] = molecular target: Receptor-type tyrosine-protein kinase FLT3 (Homo sapiens) (UniProt P36888); experiment: Inhibition of FLT3 (unknown origin) assessed as residual activity at 1 uM relative to control
[7] = molecular target: LIM domain kinase 1 (Homo sapiens) (UniProt P53667); experiment: Inhibition of LIMK1 (unknown origin) assessed as residual activity at 1 uM relative to control
[8] = molecular target: Serine/threonine-protein kinase MARK1 (Homo sapiens) (UniProt Q9P0L2); experiment: Inhibition of MARK1 (unknown origin) assessed as residual activity at 1 uM relative to control
Chain of Serine/threonine-protein kinase MARK1 (Homo sapiens) (Q9P0L2 whole entry, looked up): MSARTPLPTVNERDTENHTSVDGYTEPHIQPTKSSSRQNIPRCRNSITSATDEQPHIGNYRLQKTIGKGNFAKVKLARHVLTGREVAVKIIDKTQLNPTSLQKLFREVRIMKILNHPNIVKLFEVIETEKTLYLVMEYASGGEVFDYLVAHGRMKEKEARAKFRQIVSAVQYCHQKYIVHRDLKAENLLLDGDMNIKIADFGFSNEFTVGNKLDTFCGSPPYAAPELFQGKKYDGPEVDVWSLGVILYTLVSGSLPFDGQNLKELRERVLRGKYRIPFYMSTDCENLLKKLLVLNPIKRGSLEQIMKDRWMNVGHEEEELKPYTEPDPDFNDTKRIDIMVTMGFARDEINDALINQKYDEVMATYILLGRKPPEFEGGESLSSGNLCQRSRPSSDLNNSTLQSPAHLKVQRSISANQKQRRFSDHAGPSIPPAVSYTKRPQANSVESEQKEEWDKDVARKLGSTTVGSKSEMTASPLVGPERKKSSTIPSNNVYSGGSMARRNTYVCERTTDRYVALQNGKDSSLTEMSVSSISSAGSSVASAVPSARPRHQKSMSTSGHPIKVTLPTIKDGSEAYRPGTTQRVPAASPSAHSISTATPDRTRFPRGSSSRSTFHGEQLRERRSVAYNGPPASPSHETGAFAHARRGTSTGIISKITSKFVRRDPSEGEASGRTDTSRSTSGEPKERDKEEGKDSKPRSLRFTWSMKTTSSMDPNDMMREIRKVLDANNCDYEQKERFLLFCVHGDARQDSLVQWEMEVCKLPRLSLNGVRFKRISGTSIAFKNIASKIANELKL

[9] = molecular target: MAP/microtubule affinity-regulating kinase 4 (Homo sapiens) (UniProt Q96L34); experiment: Inhibition of MARK4 (unknown origin) assessed as residual activity at 1 uM relative to control
Chain of MAP/microtubule affinity-regulating kinase 4 (Homo sapiens) (Q96L34 whole entry): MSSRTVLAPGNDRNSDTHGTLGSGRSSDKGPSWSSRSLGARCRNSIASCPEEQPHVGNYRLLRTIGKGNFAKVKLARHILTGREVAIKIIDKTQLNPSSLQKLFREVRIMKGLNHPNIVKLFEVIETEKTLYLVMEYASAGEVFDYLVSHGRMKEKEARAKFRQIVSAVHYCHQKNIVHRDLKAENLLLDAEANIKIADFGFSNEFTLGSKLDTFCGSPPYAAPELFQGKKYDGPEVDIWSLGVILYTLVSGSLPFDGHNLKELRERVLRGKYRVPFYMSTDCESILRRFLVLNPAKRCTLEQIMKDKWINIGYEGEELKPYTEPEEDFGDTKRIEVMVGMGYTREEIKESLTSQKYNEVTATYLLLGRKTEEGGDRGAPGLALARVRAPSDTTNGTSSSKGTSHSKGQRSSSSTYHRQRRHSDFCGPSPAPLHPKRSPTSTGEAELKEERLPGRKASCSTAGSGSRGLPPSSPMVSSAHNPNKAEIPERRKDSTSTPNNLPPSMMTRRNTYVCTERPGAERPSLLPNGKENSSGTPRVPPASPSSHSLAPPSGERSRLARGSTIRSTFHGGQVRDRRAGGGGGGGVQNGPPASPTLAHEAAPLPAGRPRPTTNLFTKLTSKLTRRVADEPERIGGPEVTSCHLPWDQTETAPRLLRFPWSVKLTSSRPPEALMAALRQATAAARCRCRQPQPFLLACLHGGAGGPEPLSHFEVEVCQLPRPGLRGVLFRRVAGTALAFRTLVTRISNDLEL

[10] = molecular target: NUAK family SNF1-like kinase 2 (Homo sapiens) (UniProt Q9H093); experiment: Inhibition of SNARK (unknown origin) assessed as residual activity at 1 uM relative to control
[11] = molecular target: Non-receptor tyrosine-protein kinase TNK1 (Homo sapiens) (UniProt Q13470); experiment: Inhibition of TNK1 (unknown origin) assessed as residual activity at 1 uM relative to control
Chain of Non-receptor tyrosine-protein kinase TNK1 (Homo sapiens) (Q13470 whole entry): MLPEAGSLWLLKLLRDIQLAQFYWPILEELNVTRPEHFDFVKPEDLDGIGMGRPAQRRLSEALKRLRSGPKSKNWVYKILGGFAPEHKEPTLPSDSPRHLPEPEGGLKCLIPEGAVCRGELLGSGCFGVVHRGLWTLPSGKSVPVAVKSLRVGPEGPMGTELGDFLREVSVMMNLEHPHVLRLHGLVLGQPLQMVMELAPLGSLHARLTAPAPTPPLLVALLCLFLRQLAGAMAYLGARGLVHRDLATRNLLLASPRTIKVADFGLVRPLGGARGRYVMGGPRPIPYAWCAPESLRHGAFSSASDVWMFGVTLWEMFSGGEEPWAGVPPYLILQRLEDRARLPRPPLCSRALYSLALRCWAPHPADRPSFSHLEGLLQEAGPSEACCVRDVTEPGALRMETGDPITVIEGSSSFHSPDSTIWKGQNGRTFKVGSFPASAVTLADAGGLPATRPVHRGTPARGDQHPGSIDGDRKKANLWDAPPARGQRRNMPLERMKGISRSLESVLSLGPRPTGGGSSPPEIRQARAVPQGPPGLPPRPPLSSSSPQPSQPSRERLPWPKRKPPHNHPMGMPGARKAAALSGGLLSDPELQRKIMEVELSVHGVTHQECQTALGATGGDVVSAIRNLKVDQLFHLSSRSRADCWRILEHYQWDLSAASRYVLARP

[12] = molecular target: Leukocyte tyrosine kinase receptor (Homo sapiens) (UniProt P29376); experiment: Inhibition of TYK1 (unknown origin) assessed as residual activity at 1 uM relative to control
[13] = test system: ALK tyrosine kinase receptor (Homo sapiens), Q9UM73 [F1174S]; experiment: Inhibition of ALK F1174S mutant (unknown origin) assessed as residual activity at 1 uM relative to control
[14] = test system: ALK tyrosine kinase receptor (Homo sapiens), Q9UM73 [G1202R]; experiment: Inhibition of ALK G1202R mutant (unknown origin) assessed as residual activity at 1 uM relative to control
Chain of ALK tyrosine kinase receptor (Homo sapiens), Q9UM73 [G1202R] (Q9UM73 whole entry G1202R): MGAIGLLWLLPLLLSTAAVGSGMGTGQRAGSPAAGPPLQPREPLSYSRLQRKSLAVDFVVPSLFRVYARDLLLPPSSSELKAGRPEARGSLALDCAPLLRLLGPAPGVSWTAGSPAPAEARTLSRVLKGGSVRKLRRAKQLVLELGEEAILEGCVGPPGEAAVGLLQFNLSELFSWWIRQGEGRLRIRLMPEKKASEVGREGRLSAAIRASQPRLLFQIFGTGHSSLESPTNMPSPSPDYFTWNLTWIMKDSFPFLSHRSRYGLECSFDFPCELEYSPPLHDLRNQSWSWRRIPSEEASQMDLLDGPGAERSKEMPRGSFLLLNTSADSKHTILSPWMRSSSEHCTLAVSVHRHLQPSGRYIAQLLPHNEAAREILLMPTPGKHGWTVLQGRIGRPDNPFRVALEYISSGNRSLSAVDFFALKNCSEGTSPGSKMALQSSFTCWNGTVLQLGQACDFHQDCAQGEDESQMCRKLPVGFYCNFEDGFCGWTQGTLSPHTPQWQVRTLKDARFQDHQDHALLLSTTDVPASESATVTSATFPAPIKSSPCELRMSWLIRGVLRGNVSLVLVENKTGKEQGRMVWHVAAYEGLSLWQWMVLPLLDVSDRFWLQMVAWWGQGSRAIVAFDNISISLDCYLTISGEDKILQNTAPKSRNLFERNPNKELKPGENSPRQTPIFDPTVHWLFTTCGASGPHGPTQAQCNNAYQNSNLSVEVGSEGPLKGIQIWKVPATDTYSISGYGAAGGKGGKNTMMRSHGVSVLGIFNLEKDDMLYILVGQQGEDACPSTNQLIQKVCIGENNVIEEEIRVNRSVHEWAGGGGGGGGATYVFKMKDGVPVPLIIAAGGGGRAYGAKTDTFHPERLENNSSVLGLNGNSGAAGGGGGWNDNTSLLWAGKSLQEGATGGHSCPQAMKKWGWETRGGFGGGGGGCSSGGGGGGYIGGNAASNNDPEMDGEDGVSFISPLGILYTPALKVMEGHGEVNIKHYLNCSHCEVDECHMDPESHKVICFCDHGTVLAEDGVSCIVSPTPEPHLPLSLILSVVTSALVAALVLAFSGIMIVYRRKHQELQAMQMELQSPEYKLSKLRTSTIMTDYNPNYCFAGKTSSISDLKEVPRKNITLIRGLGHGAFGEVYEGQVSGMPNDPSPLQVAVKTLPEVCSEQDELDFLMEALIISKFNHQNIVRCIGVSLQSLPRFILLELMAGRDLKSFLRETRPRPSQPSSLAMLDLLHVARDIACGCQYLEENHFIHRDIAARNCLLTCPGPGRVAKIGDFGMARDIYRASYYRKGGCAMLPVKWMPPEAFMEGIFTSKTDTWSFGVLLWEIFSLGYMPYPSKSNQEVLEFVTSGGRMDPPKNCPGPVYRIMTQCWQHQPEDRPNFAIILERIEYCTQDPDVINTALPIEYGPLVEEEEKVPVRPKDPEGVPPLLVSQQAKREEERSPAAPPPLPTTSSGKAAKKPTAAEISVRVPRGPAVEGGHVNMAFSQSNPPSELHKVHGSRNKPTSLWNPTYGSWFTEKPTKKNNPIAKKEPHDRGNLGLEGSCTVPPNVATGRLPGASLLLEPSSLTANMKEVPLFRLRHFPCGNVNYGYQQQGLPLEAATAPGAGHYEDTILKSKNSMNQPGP

[15] = test system: ALK tyrosine kinase receptor (Homo sapiens), Q9UM73 [L1152R]; experiment: Inhibition of ALK L1152R mutant (unknown origin) assessed as residual activity at 1 uM relative to control
[16] = test system: ALK tyrosine kinase receptor (Homo sapiens), Q9UM73 [L1196M]; experiment: Inhibition of ALK L1196M mutant (unknown origin) assessed as residual activity at 1 uM relative to control
[17] = test system: ALK tyrosine kinase receptor (Homo sapiens), Q9UM73 [S1206R]; experiment: Inhibition of ALK S1206R mutant (unknown origin) assessed as residual activity at 1 uM relative to control
ALK-TPM1 (Homo sapiens) = ALK-TPM1 (Homo sapiens) (UniProt Q9UM73+P09493); experiment: Inhibition of ALK-TPM1 (unknown origin) assessed as residual activity at 1 uM relative to control; format: protein assay
HT-29 = experiment: Antiproliferative activity against human HT-29 cells assessed inhibition of cell growth incubated for 72 hrs by CCK-8 assay; format: functional, cell-based; conditions: HT-29, 72 h
[18] = Metabolic stability in human microsome assessed as intrinsic clearance preincubated for 10 mins followed by NADPH addition and measured upto 60 mins by LC-MS/MS analysis; format: ADME; conditions: microsomes, time < 70 min
[19] = Metabolic stability in human liver microsome assessed as intrinsic clearance preincubated for 10 mins followed by NADPH addition and measured upto 60 mins by LC-MS/MS analysis; format: ADME; conditions: liver microsomes, time < 70 min, read-out: CLH
[20] = AUC (0 to infinity) in Sprague-Dawley rat at 2 mg/kg, iv measured upto 24 hrs by LC-MS/MS analysis; format: ADME, organism-based; design: dose 2 mg/kg, time < 24 hrs, route iv; conditions: in vivo
[21] = AUC (0 to infinity) in Sprague-Dawley rat at 10 mg/kg, po measured upto 24 hrs by LC-MS/MS analysis; format: ADME, organism-based; design: dose 10 mg/kg, time < 24 hrs, route po; conditions: in vivo
[22] = MRT (0 to infinity) in Sprague-Dawley rat at 10 mg/kg, po measured upto 24 hrs by LC-MS/MS analysis; format: ADME, organism-based; conditions: in vivo
[23] = Clearance in Sprague-Dawley rat at 2 mg/kg, iv measured upto 24 hrs by LC-MS/MS analysis; format: ADME, organism-based; conditions: in vivo
[24] = Oral bioavailability in Sprague-Dawley rat at 10 mg/kg measured upto 24 hrs by LC-MS/MS analysis; format: ADME, organism-based; conditions: in vivo

For `CCc1cccc(CC)c1N1CCn2cc(-c3nc(Nc4ccc(N5CCN(C(C)=O)CC5)cc4OC)nc4[nH]ncc34)cc2C1=O`, the pIC50 [1] was 8.59, the pIC50 (MDA-MB-468) was 6.66 and the Activity [2] was less than 10%. For the same compound, the Activity [3] was less than 10%, the Activity [4] was less than 10% and the Activity [5] was less than 10%. The Activity [6] was less than 10%, the Activity [7] was less than 10% and the Activity [8] was less than 10%. For the same compound, the Activity [9] was less than 10%, the Activity [10] was less than 10% and the Activity [11] was less than 10%. It also gave an Activity [12] of less than 10%, an Activity [13] of less than 10% and an Activity [14] of less than 10%. For the same compound, the Activity [15] was less than 10%, the Activity [16] was less than 10% and the Activity [17] was less than 10%. It also gave an Activity (ALK-TPM1 (Homo sapiens)) of less than 10%, a pIC50 (HT-29) of less than 5.00 and a microsomal CLint [18] of 39.4 µL/min/mg. The CLint scaled [19] was 33.5 mL/min/kg, the AUC(0-inf) [20] was 1050 ng·h/mL and the AUC(0-inf) [21] was 208 ng·h/mL. For the same compound, the MRT inf [22] was 1.23 h, the clearance [23] was 32 mL/min/kg and the bioavailability [24] was 3.95%.
